Where “and” joins values, the source holds several entries; their conditions need not be identical. Identical values can stand only once.
What was measured:
Adenosine receptor A1 = molecular target: T1, Adenosine receptor A1 (Homo sapiens, UniProt P30542)
T1 sequence (P30542 whole entry): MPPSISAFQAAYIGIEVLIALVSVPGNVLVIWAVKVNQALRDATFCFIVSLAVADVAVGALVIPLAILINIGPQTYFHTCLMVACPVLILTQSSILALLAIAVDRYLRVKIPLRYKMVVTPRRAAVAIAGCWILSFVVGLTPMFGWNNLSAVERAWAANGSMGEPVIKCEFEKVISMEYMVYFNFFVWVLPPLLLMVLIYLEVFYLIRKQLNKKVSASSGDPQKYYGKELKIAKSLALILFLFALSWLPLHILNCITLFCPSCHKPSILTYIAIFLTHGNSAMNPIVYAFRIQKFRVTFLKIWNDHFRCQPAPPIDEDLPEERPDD

[1] = molecular target: Beta-2 adrenergic receptor (Homo sapiens, UniProt P07550)
Chain of Beta-2 adrenergic receptor (P07550 whole entry): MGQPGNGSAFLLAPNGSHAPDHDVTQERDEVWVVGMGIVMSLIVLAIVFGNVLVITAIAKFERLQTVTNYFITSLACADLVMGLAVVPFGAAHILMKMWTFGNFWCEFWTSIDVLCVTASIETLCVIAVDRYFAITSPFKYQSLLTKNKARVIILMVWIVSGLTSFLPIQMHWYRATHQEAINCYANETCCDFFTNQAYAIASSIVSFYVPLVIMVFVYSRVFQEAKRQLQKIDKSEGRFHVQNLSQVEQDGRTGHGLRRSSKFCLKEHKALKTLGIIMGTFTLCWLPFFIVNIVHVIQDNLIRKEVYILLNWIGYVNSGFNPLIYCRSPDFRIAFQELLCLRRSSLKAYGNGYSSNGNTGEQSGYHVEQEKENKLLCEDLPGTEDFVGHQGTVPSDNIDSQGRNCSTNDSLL

[2] = molecular target: T2, Type-1 angiotensin II receptor (Homo sapiens, UniProt P30556)
T2 sequence (P30556 whole entry): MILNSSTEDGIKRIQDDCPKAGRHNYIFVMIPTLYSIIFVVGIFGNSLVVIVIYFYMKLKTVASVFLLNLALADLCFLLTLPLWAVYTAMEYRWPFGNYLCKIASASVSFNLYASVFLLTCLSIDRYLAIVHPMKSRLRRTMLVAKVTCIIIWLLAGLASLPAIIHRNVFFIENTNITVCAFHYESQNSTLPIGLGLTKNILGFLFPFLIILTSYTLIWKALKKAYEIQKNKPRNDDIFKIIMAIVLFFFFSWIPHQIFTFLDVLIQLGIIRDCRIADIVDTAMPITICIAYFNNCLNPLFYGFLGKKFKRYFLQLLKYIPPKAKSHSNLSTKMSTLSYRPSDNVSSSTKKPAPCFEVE

[3] = molecular target: Voltage-dependent L-type calcium channel subunit alpha-1C (Rattus norvegicus, UniProt P22002); type: functional
Chain of Voltage-dependent L-type calcium channel subunit alpha-1C (P22002 whole entry): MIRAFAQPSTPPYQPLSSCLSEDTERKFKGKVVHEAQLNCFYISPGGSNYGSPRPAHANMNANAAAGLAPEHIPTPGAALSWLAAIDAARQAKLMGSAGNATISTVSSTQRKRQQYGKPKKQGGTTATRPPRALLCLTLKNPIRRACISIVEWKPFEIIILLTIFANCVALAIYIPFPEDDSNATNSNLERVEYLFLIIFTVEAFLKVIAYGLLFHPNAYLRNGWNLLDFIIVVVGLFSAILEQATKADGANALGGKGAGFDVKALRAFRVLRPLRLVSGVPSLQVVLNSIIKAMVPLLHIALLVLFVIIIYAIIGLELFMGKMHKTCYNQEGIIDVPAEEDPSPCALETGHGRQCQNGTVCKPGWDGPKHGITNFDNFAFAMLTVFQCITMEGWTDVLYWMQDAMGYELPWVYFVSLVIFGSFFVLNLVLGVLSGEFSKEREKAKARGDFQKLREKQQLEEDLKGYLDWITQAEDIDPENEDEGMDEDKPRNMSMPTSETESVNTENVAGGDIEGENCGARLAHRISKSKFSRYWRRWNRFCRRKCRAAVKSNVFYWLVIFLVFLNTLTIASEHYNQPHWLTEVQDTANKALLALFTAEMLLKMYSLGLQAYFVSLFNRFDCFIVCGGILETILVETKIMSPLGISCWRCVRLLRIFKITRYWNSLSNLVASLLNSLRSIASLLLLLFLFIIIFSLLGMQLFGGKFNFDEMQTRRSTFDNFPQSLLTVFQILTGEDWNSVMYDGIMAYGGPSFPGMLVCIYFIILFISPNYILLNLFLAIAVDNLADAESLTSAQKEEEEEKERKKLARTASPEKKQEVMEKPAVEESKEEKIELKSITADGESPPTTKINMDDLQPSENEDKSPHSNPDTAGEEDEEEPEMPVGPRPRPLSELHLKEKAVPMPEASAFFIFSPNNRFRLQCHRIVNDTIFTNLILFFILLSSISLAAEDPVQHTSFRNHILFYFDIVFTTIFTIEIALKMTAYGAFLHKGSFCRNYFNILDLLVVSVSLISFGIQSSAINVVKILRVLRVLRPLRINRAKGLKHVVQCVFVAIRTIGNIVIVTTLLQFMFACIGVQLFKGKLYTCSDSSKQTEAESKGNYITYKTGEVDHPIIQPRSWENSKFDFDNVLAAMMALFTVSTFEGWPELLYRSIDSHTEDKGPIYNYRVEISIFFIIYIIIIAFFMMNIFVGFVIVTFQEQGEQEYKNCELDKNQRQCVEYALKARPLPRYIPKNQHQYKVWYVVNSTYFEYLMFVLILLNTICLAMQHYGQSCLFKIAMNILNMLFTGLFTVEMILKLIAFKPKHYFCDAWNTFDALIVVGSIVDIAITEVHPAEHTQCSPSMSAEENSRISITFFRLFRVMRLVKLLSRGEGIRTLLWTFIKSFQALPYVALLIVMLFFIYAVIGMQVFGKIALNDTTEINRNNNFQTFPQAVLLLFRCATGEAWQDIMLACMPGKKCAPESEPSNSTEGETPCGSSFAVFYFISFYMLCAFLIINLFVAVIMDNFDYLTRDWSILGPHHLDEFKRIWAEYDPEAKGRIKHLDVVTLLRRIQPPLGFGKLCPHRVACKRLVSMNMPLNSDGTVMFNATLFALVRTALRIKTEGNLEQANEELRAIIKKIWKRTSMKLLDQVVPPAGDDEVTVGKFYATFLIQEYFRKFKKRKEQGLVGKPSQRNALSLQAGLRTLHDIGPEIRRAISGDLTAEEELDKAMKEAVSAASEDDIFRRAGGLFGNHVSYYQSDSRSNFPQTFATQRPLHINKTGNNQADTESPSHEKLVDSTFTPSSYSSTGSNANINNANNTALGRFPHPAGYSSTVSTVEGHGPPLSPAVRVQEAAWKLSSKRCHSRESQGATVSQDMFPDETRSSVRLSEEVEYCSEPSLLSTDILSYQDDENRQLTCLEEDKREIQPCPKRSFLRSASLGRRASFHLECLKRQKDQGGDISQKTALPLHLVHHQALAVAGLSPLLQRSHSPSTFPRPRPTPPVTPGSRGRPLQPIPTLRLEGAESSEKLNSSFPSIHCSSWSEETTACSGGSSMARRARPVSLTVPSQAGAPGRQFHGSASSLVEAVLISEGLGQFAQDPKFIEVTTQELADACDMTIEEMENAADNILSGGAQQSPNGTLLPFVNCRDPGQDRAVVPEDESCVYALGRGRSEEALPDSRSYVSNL

[4] = molecular target: T3, Muscarinic acetylcholine receptor M1 (Homo sapiens, UniProt P11229); type: functional
T3 sequence (P11229 whole entry): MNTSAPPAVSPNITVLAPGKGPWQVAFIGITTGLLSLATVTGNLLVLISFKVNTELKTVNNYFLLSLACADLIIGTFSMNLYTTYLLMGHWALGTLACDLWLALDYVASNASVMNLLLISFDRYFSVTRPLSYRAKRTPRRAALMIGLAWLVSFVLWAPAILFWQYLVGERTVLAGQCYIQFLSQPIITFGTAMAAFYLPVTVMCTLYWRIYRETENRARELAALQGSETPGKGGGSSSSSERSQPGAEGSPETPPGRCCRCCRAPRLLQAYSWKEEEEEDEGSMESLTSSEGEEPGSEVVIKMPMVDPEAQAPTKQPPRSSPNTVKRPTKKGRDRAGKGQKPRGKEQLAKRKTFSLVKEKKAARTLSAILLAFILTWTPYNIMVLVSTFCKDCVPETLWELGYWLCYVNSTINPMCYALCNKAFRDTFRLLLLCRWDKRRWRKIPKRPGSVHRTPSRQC

Cannabinoid receptor 1 = Cannabinoid receptor 1 (Homo sapiens, UniProt P21554)
Chain of Cannabinoid receptor 1 (P21554 whole entry): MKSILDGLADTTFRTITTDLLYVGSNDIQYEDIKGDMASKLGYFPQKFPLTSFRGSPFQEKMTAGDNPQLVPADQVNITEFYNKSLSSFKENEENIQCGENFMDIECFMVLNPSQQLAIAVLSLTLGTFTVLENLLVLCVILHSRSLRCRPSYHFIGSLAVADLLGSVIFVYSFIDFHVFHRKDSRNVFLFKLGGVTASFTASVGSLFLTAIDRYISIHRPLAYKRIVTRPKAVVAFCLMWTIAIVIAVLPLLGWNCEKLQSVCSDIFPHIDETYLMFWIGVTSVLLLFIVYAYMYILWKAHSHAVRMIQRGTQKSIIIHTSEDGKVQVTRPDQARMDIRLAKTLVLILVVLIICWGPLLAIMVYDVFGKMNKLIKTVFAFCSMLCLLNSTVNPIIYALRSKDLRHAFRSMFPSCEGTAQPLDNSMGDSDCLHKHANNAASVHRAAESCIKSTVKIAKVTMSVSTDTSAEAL

[5] = molecular target: T4, 5-hydroxytryptamine receptor 2C (Homo sapiens, UniProt P28335)
T4 sequence (P28335 whole entry): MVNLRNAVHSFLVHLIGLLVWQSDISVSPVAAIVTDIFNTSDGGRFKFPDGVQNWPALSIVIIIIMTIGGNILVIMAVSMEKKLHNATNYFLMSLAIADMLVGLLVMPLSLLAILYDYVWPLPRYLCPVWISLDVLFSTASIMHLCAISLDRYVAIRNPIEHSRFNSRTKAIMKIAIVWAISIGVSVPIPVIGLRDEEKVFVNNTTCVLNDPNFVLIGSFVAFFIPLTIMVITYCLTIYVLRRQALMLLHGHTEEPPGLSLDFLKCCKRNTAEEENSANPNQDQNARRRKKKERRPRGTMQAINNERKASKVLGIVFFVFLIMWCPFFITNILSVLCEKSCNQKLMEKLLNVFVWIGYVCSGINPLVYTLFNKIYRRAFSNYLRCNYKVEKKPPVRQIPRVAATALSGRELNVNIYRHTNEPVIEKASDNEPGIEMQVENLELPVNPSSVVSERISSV

[6] = molecular target: T5, 5-hydroxytryptamine receptor 3A (Homo sapiens, UniProt P46098); type: functional
T5 sequence (P46098 whole entry): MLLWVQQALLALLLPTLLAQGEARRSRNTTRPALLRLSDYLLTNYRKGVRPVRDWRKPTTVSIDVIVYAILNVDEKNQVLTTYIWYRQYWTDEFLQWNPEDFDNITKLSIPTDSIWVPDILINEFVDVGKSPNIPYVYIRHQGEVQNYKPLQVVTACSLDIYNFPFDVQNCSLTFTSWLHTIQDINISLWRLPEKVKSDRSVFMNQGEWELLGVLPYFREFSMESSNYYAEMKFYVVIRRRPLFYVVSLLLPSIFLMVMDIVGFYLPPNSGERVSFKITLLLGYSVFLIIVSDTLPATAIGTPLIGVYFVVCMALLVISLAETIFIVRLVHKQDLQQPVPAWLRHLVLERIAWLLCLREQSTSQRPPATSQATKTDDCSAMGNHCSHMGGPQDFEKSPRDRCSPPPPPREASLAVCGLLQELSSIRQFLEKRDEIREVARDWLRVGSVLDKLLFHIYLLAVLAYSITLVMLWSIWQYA

[7] = molecular target: 3',5'-cyclic-AMP phosphodiesterase 4D (Homo sapiens, UniProt Q08499); type: functional
[8] = molecular target: Sodium-dependent noradrenaline transporter (Homo sapiens, UniProt P23975)
Chain of Sodium-dependent noradrenaline transporter (P23975 whole entry): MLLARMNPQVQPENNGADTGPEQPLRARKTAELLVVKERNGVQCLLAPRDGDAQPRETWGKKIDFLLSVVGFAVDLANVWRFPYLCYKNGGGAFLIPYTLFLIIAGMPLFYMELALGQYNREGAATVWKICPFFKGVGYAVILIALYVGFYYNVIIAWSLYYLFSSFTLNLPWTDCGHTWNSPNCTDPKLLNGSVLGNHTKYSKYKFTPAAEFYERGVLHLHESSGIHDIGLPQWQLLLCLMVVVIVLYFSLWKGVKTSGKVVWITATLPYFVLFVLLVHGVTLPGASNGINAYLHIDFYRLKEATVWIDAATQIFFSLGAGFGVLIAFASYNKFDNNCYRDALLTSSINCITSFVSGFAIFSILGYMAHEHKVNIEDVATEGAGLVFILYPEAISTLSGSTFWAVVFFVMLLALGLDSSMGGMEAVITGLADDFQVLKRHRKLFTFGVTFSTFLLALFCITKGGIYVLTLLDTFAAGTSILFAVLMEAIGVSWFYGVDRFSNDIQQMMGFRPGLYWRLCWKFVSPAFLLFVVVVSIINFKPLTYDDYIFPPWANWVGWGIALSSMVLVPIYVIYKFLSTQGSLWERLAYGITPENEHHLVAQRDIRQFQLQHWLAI

Mu-type opioid receptor = Mu-type opioid receptor (Homo sapiens, UniProt P35372)
Chain of Mu-type opioid receptor (P35372 whole entry): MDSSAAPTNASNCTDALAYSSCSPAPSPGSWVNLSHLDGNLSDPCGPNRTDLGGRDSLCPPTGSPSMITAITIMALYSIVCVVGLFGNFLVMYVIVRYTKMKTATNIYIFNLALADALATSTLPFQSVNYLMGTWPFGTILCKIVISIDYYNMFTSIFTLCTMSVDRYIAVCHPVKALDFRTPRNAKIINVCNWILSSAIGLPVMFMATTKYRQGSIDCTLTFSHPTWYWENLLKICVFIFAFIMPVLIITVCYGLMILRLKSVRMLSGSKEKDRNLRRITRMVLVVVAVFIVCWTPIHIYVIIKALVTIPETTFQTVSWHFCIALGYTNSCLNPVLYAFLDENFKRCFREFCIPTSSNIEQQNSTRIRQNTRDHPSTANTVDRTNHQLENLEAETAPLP

D(3) dopamine receptor = D(3) dopamine receptor (Homo sapiens, UniProt P35462)
Chain of D(3) dopamine receptor (P35462 whole entry): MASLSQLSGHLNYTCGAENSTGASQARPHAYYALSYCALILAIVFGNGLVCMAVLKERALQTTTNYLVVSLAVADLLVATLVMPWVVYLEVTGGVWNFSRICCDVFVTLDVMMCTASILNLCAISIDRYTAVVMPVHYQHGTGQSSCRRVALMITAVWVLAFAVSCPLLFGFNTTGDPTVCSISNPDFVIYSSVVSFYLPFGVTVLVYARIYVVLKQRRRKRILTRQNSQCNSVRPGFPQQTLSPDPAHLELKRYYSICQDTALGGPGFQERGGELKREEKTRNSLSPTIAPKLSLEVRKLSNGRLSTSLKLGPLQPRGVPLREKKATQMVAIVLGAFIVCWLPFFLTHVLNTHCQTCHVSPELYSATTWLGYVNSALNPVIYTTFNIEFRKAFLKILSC

Histamine H3 receptor = Histamine H3 receptor (Homo sapiens, UniProt Q9Y5N1)
Chain of Histamine H3 receptor (Q9Y5N1 whole entry): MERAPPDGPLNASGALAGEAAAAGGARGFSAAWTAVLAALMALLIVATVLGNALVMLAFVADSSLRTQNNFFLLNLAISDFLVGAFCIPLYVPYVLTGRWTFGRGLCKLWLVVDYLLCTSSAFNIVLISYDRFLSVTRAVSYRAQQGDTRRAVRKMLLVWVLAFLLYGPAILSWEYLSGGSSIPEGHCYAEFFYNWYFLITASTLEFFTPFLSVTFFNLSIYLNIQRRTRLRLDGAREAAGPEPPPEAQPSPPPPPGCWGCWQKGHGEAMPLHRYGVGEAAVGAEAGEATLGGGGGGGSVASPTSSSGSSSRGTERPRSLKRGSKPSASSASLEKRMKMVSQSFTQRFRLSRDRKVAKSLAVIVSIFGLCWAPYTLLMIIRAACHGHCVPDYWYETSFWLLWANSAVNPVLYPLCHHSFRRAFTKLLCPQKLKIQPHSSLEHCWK
Note: assay procedure not described here.

| Structure (SMILES) | AC50 (Adenosine receptor A1) [µM] | AC50 [1] [µM] | AC50 [2] [µM] | AC50 [3] [µM] | AC50 [4] [µM] | AC50 (Cannabinoid receptor 1) [µM] | AC50 [5] [µM] | AC50 [6] [µM] | AC50 [7] | AC50 [8] [µM] | AC50 (Mu-type opioid receptor) [µM] | AC50 (D(3) dopamine receptor) [µM] | AC50 (Histamine H3 receptor) [µM] |
| --- | --- | --- | --- | --- | --- | --- | --- | --- | --- | --- | --- | --- | --- |
| N#Cc1ccc([C@H]2CCc3cncn32)c(F)c1 [OSILODROSTAT] | > 10 | > 10 | > 10 | > 10 | > 10 | > 10 | > 10 | > 10 | > 10 µM | > 10 | > 10 | > 10 | > 10 |
| CC[C@@H]1C(=O)OC[C@@H]1Cc1cncn1C [PILOCARPINE] | > 30 | > 10 | > 30 | > 10 |  | 16.1 | > 30 | > 30 | > 30 µM | > 30 | > 30 | > 30 | > 10 |
| O=C(O)C[C@H](O)C[C@H](O)/C=C/c1c(C2CC2)nc2ccccc2c1-c1ccc(F)cc1 [PITAVASTATIN] | > 10 | > 10 | > 30 | > 10 | > 30 | > 10 | > 30 | > 30 | 0.93 µM and 0.67 µM | > 30 | > 30 | > 30 |  |
| CN1CCC(=C2c3ccccc3CCc3sccc32)CC1 [PIZOTYLINE] | > 30 | 5.8 | > 30 | 20.1 | 0.093 | 1.66 | 0.017 | 1.4 | > 10 µM | 1.1 | > 10 | 4.3 | > 10 |
| C=CCC1(C(C)CC)C(=O)NC(=O)NC1=O (stereo not drawn) [TALBUTAL] | > 10 | > 10 | > 10 | > 10 | > 10 | > 10 | > 30 | > 30 | > 30 µM | > 10 | > 30 | > 30 | > 10 |
| CN1C(=O)C(O)N=C(c2ccccc2)c2cc(Cl)ccc21 (stereo not drawn) [TEMAZEPAM] | > 30 | > 10 | > 30 | > 10 | > 10 | > 10 | > 30 | > 30 | > 30 µM | > 10 | > 30 | > 10 | > 10 |
| CN1C(=O)OC(C)(C)C1=O [TRIMETHADIONE] | > 10 | > 10 | > 10 | > 10 |  | > 10 | > 30 | > 30 | > 30 µM | > 10 | > 30 | > 30 | > 10 |

Source: ChEMBL document CHEMBL5291721, “A preclinical secondary pharmacology resource illuminates target-adverse drug reaction associations of marketed drugs” (Nat Commun, 2023)
